Drawing on PMC8286840, “Identifying SARS-CoV-2 antiviral compounds by screening for small molecule inhibitors of Nsp3 papain-like protease” (Biochemical Journal, 2021), this text covers remaining activity for 28 compounds.

Where a name gives a salt, the structure may show the parent alone. Read-outs that look alike come from different tables or passages of the source.

Experiment [1] concerns the target T1, SARS-CoV-2 PLpro (nsp3 1564–1878) (Severe acute respiratory syndrome coronavirus 2, UniProt P0DTD1). The experiment can be described thus: biochemical. More on the design: FRET-quenched peptide (Pro3) cleavage by PLpro, 10 min pre-incubation, slope over 20 min, normalised to no-compound control. The settings on record: high concentration screen, read-out: % of control remaining.

The target of experiment [2] is T1, SARS-CoV-2 PLpro (nsp3 1564–1878). The experiment can be described thus: biochemical. The settings on record: low concentration screen, read-out: % of control remaining. More on the design: FRET-quenched peptide (Pro3) cleavage by PLpro, 10 min pre-incubation, slope over 20 min, normalised to no-compound control.

In the case of `Nc1ccn([C@@H]2O[C@H](CO)[C@@H](O)[C@@H]2O)c(=O)n1` [Cytarabine], the figures for the remaining activity at 3.75 µM in experiment [1] (Well no.=1938) and in experiment [1] (Well no.=8847) were 98.4% and 105%, respectively. Besides, the remaining activity at 1.25 µM in experiment [2] (Well no.=1938) was determined as 99.8%; in experiment [2] (Well no.=8847), 108%.

Consider `O=C1NC(=O)c2c1c(-c1ccccc1Cl)cc1[nH]c3ccc(O)cc3c21` [Wee1 Inhibitor], for which the remaining activity at 3.75 µM in experiment [1] (Well no.=2683) is 97.7%. In addition, in experiment [2] (Well no.=2683), the remaining activity at 1.25 µM was determined as 97.3%.

Turning to `O=C(NOCC1CC1)c1ccc(F)c(F)c1Nc1ccc(I)cc1Cl` [CI-1040], the remaining activity at 3.75 µM in experiment [1] (Well no.=2741) turned out to be 102%. Besides, the remaining activity at 1.25 µM in experiment [2] (Well no.=2741) came to 100%.

As for `CN(C)CCC(c1ccc(Cl)cc1)c1ccccn1` (single isomer, unassigned; (+)) [(+)-Chlorpheniramine maleate], the remaining activity at 3.75 µM in experiment [1] (Well no.=130) came to 105%. Also, in experiment [2] (Well no.=130), the remaining activity at 1.25 µM amounted to 105%.

Turning to `Cn1c(NCCN(CCO)CCCc2ccc([N+](=O)[O-])cc2)cc(=O)n(C)c1=O` [Nifekalant], in experiment [1] (Well no.=1975), the remaining activity at 3.75 µM turned out to be 102%. The remaining activity at 1.25 µM in experiment [2] (Well no.=1975) amounted to 105%.

In the case of `CCN(CC)CCCCNc1ncc2cc(-c3c(Cl)cccc3Cl)c(NC(=O)NC(C)(C)C)nc2n1` [PD-161570], in experiment [1] (Well no.=5413), the remaining activity at 3.75 µM turned out to be 97.7%. Besides, in experiment [2] (Well no.=5413), the remaining activity at 1.25 µM amounted to 99.1%.

For the compound `CNc1ncnc2c1ncn2[C@@H]1O[C@H](CO)[C@@H](O)[C@H]1O` [N6-Methyladenosine], the remaining activity at 3.75 µM in experiment [1] (Well no.=930) worked out at 96.9%; in experiment [1] (Well no.=8052) it was 96.2%. In addition, the values for the remaining activity at 1.25 µM in experiment [2] (Well no.=930) and in experiment [2] (Well no.=8052) were 97.7% and 95.7%, respectively.

Consider `Cc1cc(O)c2c(=O)c3c(O)cc(O)c4c5c(O)cc(O)c6c(=O)c7c(O)cc(C)c8c1c2c(c34)c(c78)c65` [Hypericin], for which the remaining activity at 3.75 µM in experiment [1] (Well no.=520) stood at 109%; in experiment [1] (Well no.=3725), 97.9%. Further, the values for the remaining activity at 1.25 µM in experiment [2] (Well no.=520) and in experiment [2] (Well no.=3725) were 109% and 96.4%, respectively.

In the case of `COc1ccc(-n2nc(C(N)=O)c3c2C(=O)N(c2ccc(N4CCCCC4=O)cc2)CC3)cc1` [Apixaban], the remaining activity at 3.75 µM in experiment [1] (Well no.=5331) is 100%. In addition, the remaining activity at 1.25 µM in experiment [2] (Well no.=5331) came to 99.7%.

With `CC1=C(CC(=O)O)c2cc(F)ccc2/C1=C\c1ccc(S(C)(=O)=O)cc1` [Sulindac sulfone], in experiment [1] (Well no.=1500), the remaining activity at 3.75 µM is 96.6%. Further, the remaining activity at 1.25 µM in experiment [2] (Well no.=1500) came out at 95.3%.

For the compound `CO[C@@H](C[C@@H]1CC[C@@H](C)[C@](O)(C(=O)C(=O)N2CCCC[C@H]2C(=O)O)O1)/C(C)=C/C=C/C=C/[C@@H](C)C[C@@H](C)C(=O)[C@H](OC)[C@H](O)/C(C)=C/[C@@H](C)C(=O)/C=C/[C@H](C)C[C@@H]1CC[C@@H](O)[C@H](OC)C1` [Seco Rapamycin (sodium salt)], the remaining activity at 3.75 µM in experiment [1] (Well no.=7642) amounted to 95.9%. Besides, the remaining activity at 1.25 µM in experiment [2] (Well no.=7642) amounted to 97.4%.

Regarding `CC[C@@H](C(=O)[C@@H](C)[C@@H](O)[C@H](C)[C@@H]1O[C@@H]([C@@H](CC)C(=O)O)CC[C@@H]1C)[C@H]1O[C@]2(C=C[C@@H](O)[C@]3(CC[C@@](C)([C@H]4CC[C@](O)(CC)[C@H](C)O4)O3)O2)[C@H](C)C[C@@H]1C` [Salinomycin], the remaining activity at 3.75 µM in experiment [1] (Well no.=3499) was 102%. For the same compound, the remaining activity at 1.25 µM in experiment [2] (Well no.=3499) is 104%.

As for `c1ccc2c(c1)CCCC2C1=NCCN1` (centres unmarked) [Tetrahydrozoline (hydrochloride)], in experiment [1] (Well no.=8099), the remaining activity at 3.75 µM is 91.5%. For the same compound, the remaining activity at 1.25 µM in experiment [2] (Well no.=8099) worked out at 96.6%.

Take `O=c1c(O)c(-c2ccc(O)cc2O)oc2cc(O)cc(O)c12` [Morin]: the remaining activity at 3.75 µM in experiment [1] (Well no.=1022) was 93.4%. Also, the remaining activity at 1.25 µM in experiment [2] (Well no.=1022) is 96.8%.

Take `OC[C@H]1O[C@@H](n2cnc3c(NC4CCCC4)nc(Cl)nc32)[C@H](O)[C@@H]1O` [2-Chloro-N6-cyclopentyladenosine]: in experiment [1] (Well no.=439), the remaining activity at 3.75 µM was 102%. Further, in experiment [2] (Well no.=439), the remaining activity at 1.25 µM turned out to be 98.2%.

Regarding `CCCc1cc(-c2nc(-c3ccc(C)cc3)cs2)ccn1` [Fatostatin HBr], in experiment [1] (Well no.=8822), the remaining activity at 3.75 µM amounted to 92.8%. Moreover, the remaining activity at 1.25 µM in experiment [2] (Well no.=8822) turned out to be 94.2%.

In the case of `CC(=O)N1N=C(c2ccc(N)cc2)c2cc3c(cc2C[C@H]1C)OCO3` [Talampanel], the remaining activity at 3.75 µM was 97.1% in experiment [1] (Well no.=5791) and 99.6% in experiment [1] (Well no.=6496). The remaining activity at 1.25 µM in experiment [2] (Well no.=5791) was determined as 97.9%; in experiment [2] (Well no.=6496) it was 96.3%.

Consider `CN[C@@H](C)C(=O)N[C@H](C(=O)N1CCC[C@H]1C(=O)Nc1sc(-c2ncco2)nc1-c1ccccc1)C1CCCCC1` [CUDC-427], for which the remaining activity at 3.75 µM in experiment [1] (Well no.=7062) turned out to be 92.1%. Besides, in experiment [2] (Well no.=7062), the remaining activity at 1.25 µM was determined as 99.8%.

As for `CCn1c(=O)[nH]c2cc(Cl)c(Cl)cc21` [DCEBIO], the remaining activity at 3.75 µM in experiment [1] (Well no.=538) worked out at 104%. In experiment [2] (Well no.=538), the remaining activity at 1.25 µM worked out at 102%.

As to `CCC(=O)N1CCN(c2ccc(-n3c(=O)ccc4cnc5ccc(-c6cnc7ccccc7c6)cc5c43)cc2C(F)(F)F)CC1` [Torin 1], the remaining activity at 3.75 µM in experiment [1] (Well no.=4795) amounted to 102%. In addition, the remaining activity at 1.25 µM in experiment [2] (Well no.=4795) came out at 106%.

For `O=C(O)/C=C1\CCCc2ccccc2C1O` (centres unmarked) [NCS-382], the remaining activity at 3.75 µM in experiment [1] (Well no.=903) worked out at 99.9%. In addition, the remaining activity at 1.25 µM in experiment [2] (Well no.=903) is 101%.

Turning to `COc1cccc(-c2cc(=O)c3ccccc3o2)c1N` [PD 98059], the remaining activity at 3.75 µM in experiment [1] (Well no.=2600) worked out at 92%. Further, in experiment [2] (Well no.=2600), the remaining activity at 1.25 µM was 94.8%.

As to `CCn1cc(C(=O)O)c(=O)c2cc3c(cc21)OCO3` [Oxolinic acid], in experiment [1] (Well no.=1134), the remaining activity at 3.75 µM worked out at 98.5%. Moreover, the remaining activity at 1.25 µM in experiment [2] (Well no.=1134) was 98.1%.

For the compound `CN(CCOc1ccc(C[C@H](Nc2ccccc2C(=O)c2ccccc2)C(=O)O)cc1)c1ccccn1` [GW1929], the remaining activity at 3.75 µM in experiment [1] (Well no.=477) amounted to 96.6%; in experiment [1] (Well no.=8120) it was 94.2%. For the same compound, the remaining activity at 1.25 µM in experiment [2] (Well no.=8120) came to 97.1%.

For the compound `CC[C@H](C)[C@H](N)C(=O)N1CCC[C@H]1C(=O)N[C@H](C(=O)O)[C@@H](C)CC` [Diprotin A (TFA)], in experiment [1] (Well no.=8464), the remaining activity at 3.75 µM worked out at 101%. Besides, the remaining activity at 1.25 µM in experiment [2] (Well no.=8464) came to 104%.

For `NC(=O)c1cccc(NC(=O)/C=C/c2c[nH]c3ccccc23)c1` [(E)-3-(3-(1H-indol-3-yl)acrylamido)benzamide], the remaining activity at 3.75 µM in experiment [1] (Well no.=5576) is 93.4%. Moreover, the remaining activity at 1.25 µM in experiment [2] (Well no.=5576) was 93.5%.

Regarding `O=c1[nH]c2ccccc2n1C1CCN(Cc2ccc(-c3[nH]c4cc5ncnc5cc4nc3-c3ccccc3)cc2)CC1` [Akt-I-1,2], the remaining activity at 3.75 µM in experiment [1] (Well no.=2755) was found to be 98.5%. For the same compound, in experiment [2] (Well no.=2755), the remaining activity at 1.25 µM was determined as 101%.

For the compound `CCNC(=O)Nc1ccc(-c2nc3c(c(N4CCOC[C@@H]4C)n2)CCN(C2COC2)C3)cc1` [GDC-0349], the remaining activity at 3.75 µM in experiment [1] (Well no.=5220) is 95.1%. The remaining activity at 1.25 µM in experiment [2] (Well no.=5220) came out at 97.8%.
